Assay results published in patent publication US9642831B2, “Substituted chromanes and method of use” (AbbVie S.á.r.l., priority 2014, dated 2017).
pEC50: −log10 of the molar value.

Legend:
CYP3A4 = CYP3A4 induction in primary human hepatocytes (mRNA, RT-PCR); settings: test compounds 10 μM, 48 hours, % of response of positive control (Rifampin 10 μM)
Procedure: Cryopreserved primary human hepatocytes were thawed and cultured overnight prior to treatment. […] Following the 48 hour treatment, hepatocytes were harvested for RNA isolation and reverse transcription, followed by CYP3A4 mRNA quantitation using RT-PCR (real time reverse transcript polymerase chain reaction).
Fold Induction=Fold of Treated/Fold of Vehicle Control % positive control=(Fold Induction of Treated−1)/(Fold Induction of Prototypical Inducer−1)

F508delCFTR [1] = biological target: T1, F508delCFTR (Homo sapiens, UniProt P13569, DEL508-508); experiment: Cell Surface Expression-Horse Radish Peroxidase (CSE-HRP) assay; type: cell-based; parameters: expressed in transfected cells; host or cells: CFBE41o- human lung derived epithelial cell line, doxycycline-inducible; settings: CFBE4lo-F508delCFTR-HRP cells; for pEC50: 18-24 hours at 33° C., 8-point curve, highest concentration 20 μM, luminescence readout; for Emax: maximum % activity at any tested concentration, normalized to on-plate positive control (3 μM Example 1)
Method in brief: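 Following 18-24 h compound exposure at 33° C. Expression was doxycycline-induced beforehand. % activity versus DMSO and a 3 μM corrector control gave maximum activity and EC50 from a variable-Hill sigmoidal fit.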

F508delCFTR [2] = biological target: T1, F508delCFTR; experiment: Transepithelial Clamp Circuit (TECC-24) conductance assay on primary human bronchial epithelial cells (hBE-TECC); type: cell-based; parameters: cells isolated from CF patients with the homozygous mutation; endogenous in cells; host or cells: primary human bronchial epithelial (hBE) cells from F508del/F508del CF patients; settings: for pEC50: primary hBE cells from F508del/F508delCFTR patients, corrector 18-24 hours at 37° C., equivalent short circuit current (Ieq), with control potentiator 1 μM; for Emax: relative to positive control (3 μM Example 1 coupled with control potentiator = 100%), primary hBE F508del/F508del cells, read-out: Maximum % activity (%)
Text: Transepithelial Clamp Circuit on Human Bronchial Epithelial Cells Conductance Assay:
A cell based assay using the primary human bronchial epithelial cells (hBE) was used as a secondary assay to test novel F508delCFTR correctors for their activity on primary hBE cells with F508del/F508del CFTR mutation. The assay used a TECC-24 (Transepithelial Clamp Circuit for 24 wells) instrument that measures the functionality of the mutated channel by measuring the equivalent short circuit current (Ieq) generated by the polarized epithelial cells. The instrument works by measuring the transepithelial potential difference (Vt) and transepithelial resistance (Rt) in an open circuit format, and the Ieq is calculated by using Ohms law (Ieq=Vt/Rt). The assay was run in a 24-well format and all 24-wells were measured at the same time point giving a higher throughput for this assay.
Primary human bronchial epithelial (hBE) cells from F508del/F508delCFTR patients were expanded from 1×10^6 to 250×10^6 cells (Neuberger T, Burton B, Clark H and VanGoor F; Cystic Fibrosis, Methods in Mole Biol 741; eds. Amaral M D and Kunzelmann K, 2011). For this purpose, cells isolated from CF patients with the homozygous mutation were seeded onto 24 well Corning (Cat #3378) filter plates that were coated with 3T3 conditioned media and grown at an air-liquid interface for 35 days using an Ultroser® G supplemented differentiation media. Apical surface mucus was removed 72 hours before the experiment using 3 mM dithiothreitol (DTT) in phosphate buffered saline (PBS). The apical surface was washed again 24 hours before the experiment using PBS. The cells were incubated with the desired dose response of the corrector compounds 18-24 hours at 37° C., 5% CO2. The corrector compounds are only added on the basolateral side of the epithelial cells.
On the day of measuring the corrector activity on the TECC, the cells were switched into a bicarbonate and serum free F-12 Coon's medium and allowed to equilibrate for 90 minutes in a CO2 free incubator. At the time of measurement, the apical and basolateral sides of the filter were bathed with the F-12 Coon's modification media (with 20 mM 4-(2-hydroxyethyl)-1-piperazineethanesulfonic acid (HEPES), pH 7.4 (using 1 M tris(hydroxymethyl)aminormethane (Tris)), and the measurements were made at 36.5° C. Transepithelial voltage (Vt) and transepithelial resistance (Rt) were measured using a 24 channel transepithelial current clamp (TECC-24). Current responses to the sequential addition of benzamil (apical 6 μM addition; for inhibiting epithelial ENaC channel), forskolin (apical and basolateral 10 μM addition; for activating the CFTR channel), control potentiator (N-(3-carbamoyl-5,5,7,7-tetramethyl-4,7-dihydro-5H-thieno[2,3-c]pyran-2-yl)-1H-pyrazole-5-carboxamide; apical and basolateral 1 μM addition; for potentiating the CFTR channel) and bumetanide (basolateral 20 μM addition; for inhibiting the Na:2Cl:K co-transporter, an indirect measure of inhibiting the Cl-secretion driven by CFTR channel) were measured.
All plates contained negative controls (dimethyl sulfoxide, DMSO) which coupled with the control potentiator (N-(3-carbamoyl-5,5,7,7-tetramethyl-4,7-dihydro-5H-thieno[2,3-c]pyran-2-yl)-1H-pyrazole-5-carboxamide) sets the null response and positive controls (3 μM of 3-[(2R,4R)-4-({[1-(2,2-difluoro-1,3-benzodioxol-5-yl)cyclopropyl]carbonyl}amino)-7-methoxy-3,4-dihydro-2H-chromen-2-yl]benzoic acid) coupled with the control potentiator sets the 100% response to measure the correction of the mutated CFTR channel. The maximum percent activity is reported relative to the positive control value.
The % activity measured at each of the 6 test concentrations of the test compound was normalized to the on-plate positive control using the following formula: % activity=[(test compound response−DMSO response)/(positive control response−DMSO response)]*100 […]

T1 sequence (P13569 with tags, fused parts or gaps DEL508-508): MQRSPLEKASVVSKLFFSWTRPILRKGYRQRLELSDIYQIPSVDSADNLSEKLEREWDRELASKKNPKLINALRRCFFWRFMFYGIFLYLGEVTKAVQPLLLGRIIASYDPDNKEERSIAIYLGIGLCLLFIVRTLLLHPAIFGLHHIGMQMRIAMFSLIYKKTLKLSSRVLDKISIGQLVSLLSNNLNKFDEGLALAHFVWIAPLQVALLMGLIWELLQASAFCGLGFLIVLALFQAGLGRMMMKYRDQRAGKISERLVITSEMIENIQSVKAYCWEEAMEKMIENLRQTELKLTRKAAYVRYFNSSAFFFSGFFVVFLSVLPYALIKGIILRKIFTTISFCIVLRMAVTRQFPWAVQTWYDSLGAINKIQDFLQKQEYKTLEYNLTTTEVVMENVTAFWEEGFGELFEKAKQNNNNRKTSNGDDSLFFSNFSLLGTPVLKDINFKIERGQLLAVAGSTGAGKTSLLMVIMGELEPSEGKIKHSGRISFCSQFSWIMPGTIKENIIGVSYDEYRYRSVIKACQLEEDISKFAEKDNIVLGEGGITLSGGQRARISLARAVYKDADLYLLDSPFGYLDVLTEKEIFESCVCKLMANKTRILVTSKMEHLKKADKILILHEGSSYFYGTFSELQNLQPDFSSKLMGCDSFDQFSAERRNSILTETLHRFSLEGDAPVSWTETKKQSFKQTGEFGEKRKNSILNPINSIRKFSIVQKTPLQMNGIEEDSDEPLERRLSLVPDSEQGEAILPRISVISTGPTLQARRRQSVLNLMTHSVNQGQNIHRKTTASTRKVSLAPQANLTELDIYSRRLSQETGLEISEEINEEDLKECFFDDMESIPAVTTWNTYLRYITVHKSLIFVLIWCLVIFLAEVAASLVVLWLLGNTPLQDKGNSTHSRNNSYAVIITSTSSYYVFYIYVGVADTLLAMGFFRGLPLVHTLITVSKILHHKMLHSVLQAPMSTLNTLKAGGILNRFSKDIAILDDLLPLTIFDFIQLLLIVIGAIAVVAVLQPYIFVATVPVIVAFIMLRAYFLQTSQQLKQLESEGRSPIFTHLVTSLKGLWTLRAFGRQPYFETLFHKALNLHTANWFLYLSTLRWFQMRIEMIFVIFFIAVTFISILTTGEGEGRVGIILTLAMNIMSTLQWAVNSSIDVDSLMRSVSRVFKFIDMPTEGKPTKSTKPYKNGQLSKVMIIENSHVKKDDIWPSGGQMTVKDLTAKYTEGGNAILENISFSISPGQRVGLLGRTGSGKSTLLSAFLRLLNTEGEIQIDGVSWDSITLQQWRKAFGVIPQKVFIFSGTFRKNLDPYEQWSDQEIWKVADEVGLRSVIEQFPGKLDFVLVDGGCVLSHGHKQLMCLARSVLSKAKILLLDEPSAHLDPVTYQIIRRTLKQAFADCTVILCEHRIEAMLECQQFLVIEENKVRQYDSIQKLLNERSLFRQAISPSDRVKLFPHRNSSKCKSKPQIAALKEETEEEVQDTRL

Row | CYP3A4 Hepatocytes mRNA % of positive control (CYP3A4) | pEC50 (F508delCFTR [1]) | Emax (F508delCFTR [1]) | pEC50 (F508delCFTR [2]) | Emax (F508delCFTR [2]) | SMILES
1 | 42.2% | 6.35 | 94% | 7.26 | 70% | O=C(O)C1CCCC([C@H]2C[C@@H](NC(=O)C3(c4ccc5c(c4)OC(F)(F)O5)CC3)c3ccc(C(F)(F)F)cc3O2)C1 (stereo partly drawn) [Example 109, 3-[(2R,4R)-4-({[1-(2,2-difluoro-1,3-benzodioxol-5-yl)cyclopropyl]carbonyl}amino)-7-(trifluoromethyl)-3,4-dihydro-2H-chromen-2-yl]cyclohexanecarboxylic acid]
2 | −0.105% | 7.36 | 113% | 8.30 | 90% | COc1ccc2c(c1)O[C@@H](c1ccc(C(=O)O)cc1)C[C@H]2NC(=O)C1(c2ccc3c(c2)OC(F)(F)O3)CC1 [Example 111, 4-[(2R,4R)-4-({[1-(2,2-difluoro-1,3-benzodioxol-5-yl)cyclopropyl]carbonyl}amino)-7-methoxy-3,4-dihydro-2H-chromen-2-yl]benzoic acid]
3 | 10.6% | 7.59 | 122% | 8.40 | 87% | O=C(O)c1ccc([C@H]2C[C@@H](NC(=O)C3(c4ccc5c(c4)OC(F)(F)O5)CC3)c3ccc(OC(F)F)cc3O2)cc1 [Example 122, 4-[(2R,4R)-4-({[1-(2,2-difluoro-1,3-benzodioxol-5-yl)cyclopropyl]carbonyl}amino)-7-(difluoromethoxy)-3,4-dihydro-2H-chromen-2-yl]benzoic acid]
4 | 11.6% | 7.52 | 129% | 8.40 | 98% | COc1ccc2c(c1)O[C@@H](c1ccc(C(=O)O)cc1F)C[C@H]2NC(=O)C1(c2ccc3c(c2)OC(F)(F)O3)CC1 [Example 146, 4-[(2R,4R)-4-({[1-(2,2-difluoro-1,3-benzodioxol-5-yl)cyclopropyl]carbonyl}amino)-7-methoxy-3,4-dihydro-2H-chromen-2-yl]-3-fluorobenzoic acid]
